According to patent US20110288105A1, “ELTOPRAZINE FOR THE TREATMENT OF L-DOPA-INDUCED DYSKINESIA” (Merz Pharma GmbH & Co. KGaA, priority 2008, published 2011):
“Also recorded” adds a separate entry of the source.

How the values were obtained:
dopamine D2 receptor = dopamine D2 receptor (Homo sapiens, UniProt P14416); experiment: Affinity for dopamine D2 receptor; format: binding
[1] = molecular target: T1, 5-HT2a recombinant receptor (Homo sapiens, UniProt P28223); experiment: Aequorin cell line functional assay, 5-HT2a; format: cell-based; settings: human recombinant cell lines; FIG. 1; relevant plasma concentration (<0.5 μM)
T1 construct: expressed in transfected cells
Method: (§1) Aequorin cell lines expressing the 5-HT2a, 5-HT2b and 5-HT2c non-edited (ne) recombinant receptors were used to evaluate the functional activity of eltoprazine. Aequorin cells grown 18 hours prior to the test in media without antibiotics were detached by gentle flushing with PBS-EDTA (5 mM EDTA), recovered by centrifugation and resuspended in “assay buffer” (DMEM/HAM's F12 with HEPES+0.1% BSA protease free). Cells were incubated at room temperature for at least 4 h with Coelenterazine h (Molecular Probes). The reference agonist used were 5-HT and a-methyl-5-HT. For agonist testing, 50 μl of cell suspension were injected on 50 μl of test compound or reference agonist plated in a 96-well plate. The resulting emission of light was recorded using the Hamamatsu Functional Drug Screening System 6000 (FDSS 6000).

human 5-HT1b receptor = molecular target: T2, human 5-HT1b receptor (Homo sapiens, UniProt P28222); experiment: GTPγS assay, agonist testing, 5-HT1b; format: biochemical; settings: human recombinant cell lines; FIG. 1; relevant plasma concentration (<0.5 μM)
T2 construct: expressed in transfected cells; host or cells: CHO-K1
Method: (§2) Eltoprazine was tested for activity on the human serotonin HT1a and 5-HT1b receptors using a GTPγS assay. Recombinant membranes obtained from CHO-K1 cells expressing either the 5-HT1a or 5-HT1b receptors were mixed with GDP (volume:volume) and incubated for at least 15 min on ice. In parallel, GTPγ[35S] was mixed with the beads (volume:volume) just before starting the reaction. The following reagents were successively added in the wells of an Optiplate (Perkin Elmer): 50 μl of test compound, 20 μl of the membranes:GDP mix, 10 μl of assay buffer (for agonist testing) and 20 μl of the GTPγ[35S]:beads mix. The plates were covered with a top seal, shaken on an orbital shaker for 2 min, and then incubated for 1 hour at room temperature. Then the plates were centrifuged for 10 min at 2000 rpm, incubated at room temperature 1 hour and counted for 1 min/well with a PerkinElmer TopCount reader.

[2] = molecular target: T3, 5-HT2c non-edited (ne) recombinant receptor (Homo sapiens, UniProt P28335); experiment: Aequorin cell line functional assay, 5-HT2c non-edited; format: cell-based; settings: human recombinant cell lines; FIG. 1; relevant plasma concentration (<0.5 μM)
T3 construct: expressed in transfected cells
T3 sequence (P28335 33-458): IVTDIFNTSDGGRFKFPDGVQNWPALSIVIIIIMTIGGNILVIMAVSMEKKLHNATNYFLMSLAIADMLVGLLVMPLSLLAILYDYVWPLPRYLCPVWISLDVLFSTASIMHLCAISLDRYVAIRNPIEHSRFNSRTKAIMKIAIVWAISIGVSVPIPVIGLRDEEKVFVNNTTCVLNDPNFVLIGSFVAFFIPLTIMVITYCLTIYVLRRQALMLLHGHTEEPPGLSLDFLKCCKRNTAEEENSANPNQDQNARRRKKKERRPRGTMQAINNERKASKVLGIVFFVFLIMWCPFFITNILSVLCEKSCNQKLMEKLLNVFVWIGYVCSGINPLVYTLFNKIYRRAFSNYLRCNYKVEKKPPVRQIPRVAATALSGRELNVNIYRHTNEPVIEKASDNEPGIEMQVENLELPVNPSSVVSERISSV
Method: as §1

[3] = tested on: unilaterally 6-OHDA-lesioned rats; experiment: Turning behaviour induced by high dose of L-DOPA in 6-OHDA-lesioned rats; format: in vivo, rat; settings: 0.3, 1.25 and 5 mg/kg, 30 min before test, FIG. 3
Method: (§3) Male Sprague Dawley rats (Elevage Janvier, Le Genest Saint Isle, France) weighing between 220 and 250 g at the beginning of the study are used in these experiments. They are housed under a 12-hr light/dark cycle with free access to standard pelleted food and tap water. Animal treatment and experimental procedures are approved by local ethical committees (Regierungspräsidium Darmstadt; Germany).
(§4) Dopamine-denervating lesions are performed on rats anaesthetized with a 5:1 mixture of ketamine and xylazine (1 ml/kg, i.p.). […] The animals' turning behaviour is recorded in an automated rotometer (TSE Rotameter System, TSE—Systems GmbH, Bad Homburg, Germany) over a 90-min period after the intraperitoneal (i.p.) injection of 2.5 mg/kg dexamphetamine sulphate dissolved in saline. […]
In order to evaluate the effect of eltoprazine on parkinsonian symptoms and its interaction with L-DOPA, rotational behaviour is evaluated. The numbers of ipsilateral and contralateral turns are recorded in an automated rotometer (TSE Rotameter System, TSE—Systems GmbH, Bad Homburg, Germany) over a period of 180 min. […]

[4] = molecular target: T4, human serotonin HT1a receptor (Homo sapiens, UniProt P08908); experiment: GTPγS assay, agonist testing, 5-HT1a; format: biochemical; settings: human recombinant cell lines; FIG. 1; relevant plasma concentration (<0.5 μM)
T4 construct: expressed in transfected cells; host or cells: CHO-K1
T4 sequence (P08908 1-422): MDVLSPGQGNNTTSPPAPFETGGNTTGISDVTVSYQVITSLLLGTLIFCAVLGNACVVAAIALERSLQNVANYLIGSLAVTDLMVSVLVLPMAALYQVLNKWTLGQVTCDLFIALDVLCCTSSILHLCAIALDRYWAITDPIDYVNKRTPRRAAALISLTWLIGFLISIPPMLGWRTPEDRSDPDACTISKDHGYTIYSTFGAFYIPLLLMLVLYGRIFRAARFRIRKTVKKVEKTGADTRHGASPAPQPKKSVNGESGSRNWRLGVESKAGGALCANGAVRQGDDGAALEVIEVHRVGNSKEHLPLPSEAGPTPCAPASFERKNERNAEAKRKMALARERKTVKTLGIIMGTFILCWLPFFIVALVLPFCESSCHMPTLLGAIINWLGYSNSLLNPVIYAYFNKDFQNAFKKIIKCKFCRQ
Method: as §2

[5] = tested on: unilaterally 6-OHDA-lesioned rats; experiment: L-DOPA-induced dyskinesia (AIM scores) in 6-OHDA-lesioned rat model of Parkinson's disease; format: in vivo; settings: eltoprazine hydrochloride 0.08, 0.3, 1.25 and 5 mg/kg s.c.; after 21 days of L-DOPA; FIG. 2
Method: as §3, §4
In order to evaluate a the severity of LID, AIMs are recorded every second day as described by Cenci et al. (1998). […]
Eur J Neurosci 1998 10:2694-2706. […] Each rat is scored on a severity scale from 0 to 4 based on its frequency and persistence (1=occasional; 2=frequent; 3=continuous but interrupted by sensory distraction; 4=continuous, severe and not interrupted by sensory distraction). […]

[6] = tested on: rodent models of depression; settings: in vivo; cited from earlier work
[7] = tested on: 1-methyl-4-phenyl-1,2,3,6-tetrahydropyridine-treated primates; settings: monkey studies; Iravani et al. 2003; cited from earlier work

dopamine D2 receptor, sequence (P14416 whole entry, species assumed): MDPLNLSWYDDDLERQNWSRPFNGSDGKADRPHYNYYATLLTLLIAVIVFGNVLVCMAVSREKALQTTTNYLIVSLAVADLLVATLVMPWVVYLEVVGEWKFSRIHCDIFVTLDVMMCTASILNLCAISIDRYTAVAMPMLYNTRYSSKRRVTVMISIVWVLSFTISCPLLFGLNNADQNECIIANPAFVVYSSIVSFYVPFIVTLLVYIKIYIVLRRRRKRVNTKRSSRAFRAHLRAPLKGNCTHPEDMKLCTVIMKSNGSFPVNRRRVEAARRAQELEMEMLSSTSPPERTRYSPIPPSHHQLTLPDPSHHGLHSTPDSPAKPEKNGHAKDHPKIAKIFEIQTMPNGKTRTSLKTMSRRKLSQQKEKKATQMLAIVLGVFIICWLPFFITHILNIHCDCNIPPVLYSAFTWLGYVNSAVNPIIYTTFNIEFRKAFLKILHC
T2 sequence (P28222 whole entry): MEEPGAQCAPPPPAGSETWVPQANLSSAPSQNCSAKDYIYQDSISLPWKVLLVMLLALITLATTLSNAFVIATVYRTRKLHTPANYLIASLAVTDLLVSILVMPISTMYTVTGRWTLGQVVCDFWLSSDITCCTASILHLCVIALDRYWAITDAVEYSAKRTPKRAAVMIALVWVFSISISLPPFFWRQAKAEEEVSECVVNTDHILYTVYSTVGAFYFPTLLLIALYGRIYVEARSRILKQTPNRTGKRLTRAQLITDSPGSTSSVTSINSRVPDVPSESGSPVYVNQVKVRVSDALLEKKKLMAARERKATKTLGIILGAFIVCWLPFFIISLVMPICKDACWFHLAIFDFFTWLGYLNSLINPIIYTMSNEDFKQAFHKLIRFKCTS
T1 sequence (P28223 whole entry): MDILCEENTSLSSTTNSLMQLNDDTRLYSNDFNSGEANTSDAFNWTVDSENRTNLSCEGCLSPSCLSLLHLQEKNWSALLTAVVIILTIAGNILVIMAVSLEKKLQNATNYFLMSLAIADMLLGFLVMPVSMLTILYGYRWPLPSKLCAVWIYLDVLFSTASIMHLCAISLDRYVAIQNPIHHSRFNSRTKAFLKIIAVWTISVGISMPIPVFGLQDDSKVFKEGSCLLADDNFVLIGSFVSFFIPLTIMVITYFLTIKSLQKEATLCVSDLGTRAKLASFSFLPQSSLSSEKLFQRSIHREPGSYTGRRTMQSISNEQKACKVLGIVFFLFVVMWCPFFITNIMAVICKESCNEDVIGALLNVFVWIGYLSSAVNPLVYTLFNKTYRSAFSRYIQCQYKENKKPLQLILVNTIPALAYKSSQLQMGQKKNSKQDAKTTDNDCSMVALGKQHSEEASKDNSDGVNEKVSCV

In the case of c1cc2c(c(N3CCNCC3)c1)OCCO2 [eltoprazine, 1-(2,3-dihydro-1,4-benzodioxin-5-yl)piperazine], the “affinity for the dopamine D2 receptor” value (dopamine D2 receptor) is reported as “devoid of significant affinity”, the “functional action on 5-HT2a receptor” value [1] is reported as “partial agonistic action” and the “functional action on 5-HT1b receptor” value (human 5-HT1b receptor) is reported as “partial agonistic action”. The “functional action on 5-HT2c receptor” value [2] was “agonist”, the “interference with the antiparkinsonian effect of L-DOPA (turning behaviour)” value [3] was “does not interfere with the antiparkinsonian effect of L-DOPA; also recorded: does not interfere with the anti-parkinsonian effect of L-DOPA” and the “functional action on 5-HT1a receptor” value [4] was “weak agonistic action”. The “effect on AIM scores (L-DOPA-induced dyskinesia)” value [5] was “significantly reverses, in a dose-dependent manner”.
For CCc1cc2c(ccc3cnn(C[C@H](C)N)c32)o1 [YM348], the “effect in rodent models of depression” value [6] is listed as “positive effects”.
In the case of COc1ccc2c(c1O[C@H]1CCNC1)CCC2 [Org 37684], the “effect in rodent models of depression” value [6] is listed as “positive effects”.
In the case of c1cc2c3c(c1)[C@H]1CCC[C@H]1N3CCNC2 [WAY-163909], the “effect in rodent models of depression” value [6] is given as “positive effects”.
For C[C@H](N)Cn1ccc2cc(F)c(Cl)cc21 [Ro 60-0175], the “effect in rodent models of depression” value [6] is listed as “positive effects”.
In the case of Clc1cccc(N2CCNCC2)c1 [mCPP], the “effect in rodent models of depression” value [6] is listed as “positive effects”.
In the case of COc1ccc2[nH]cc(C3=CCNCC3)c2c1 [Ru-24969], the “effect on motor symptoms / side effects” value [7] is given as “worsening of motor symptoms and/or development of side effects”.
